Measurements: EP4725957A1, “GROUP OF CYCLIC ALKALINE LIPOPEPTIDE COMPOUNDS, AND PREPARATION METHOD THEREFOR AND USE THEREOF” (Institute of Medicinal Biotechnology, Chinese Academy of …, priority 2023, dated 2024)
Converted amounts (≈) assume the structure as drawn. Bridge positions count the residues as written; N and C are the ends. Square brackets hold non-standard residues; d marks the D form. Peptide text beside a SMILES is read from it. * marks the point of attachment. Dab(CH2SO3H) = N[C@@H](CCNCS(=O)(=O)O)C(=O)O; Heptanoyl(6-Me) = CC(C)CCCCC(=O)*; dOrn = NCCC[C@@H](N)C(=O)O; Nonanoyl = CCCCCCCCC(=O)*; X1 = CC[C@H](C)CCCCC(=O)*; dDab = NCC[C@@H](N)C(=O)O; Heptanoyl = CCCCCCC(=O)*; Octanoyl = CCCCCCCC(=O)*; Orn = NCCC[C@H](N)C(=O)O; Dab = NCC[C@H](N)C(=O)O; Dap = NC[C@H](N)C(=O)O

How the values were obtained:
Assay type in all cases: cell-based
[1] = system: Acinetobacter baumannii ABA19-1; details: ABA19-1
Description: (§1) The minimal inhibitory concentration (MIC) was determined by the broth microdilution method according to the recommended procedures of the Clinical and Laboratory Standards Institute (CLSI).
(§2) An appropriate amount of the cyclic lipopeptide compounds prepared in Examples 1-120 and the reference standards were weighed and dissolved in sterile pure water. An appropriate volume of the mother solution was subjected to ten-fold dilution with sterile Mueller-Hinton (MH) broth to a concentration of 0.256 mg/mL. Half of the drug solution was aliquoted into 96-well reagent reservoirs, while the other half was subjected to two-fold serial dilution with sterile MH broth before being transferred into deep-well reagent reservoirs. The above steps were repeated, so that the drug concentrations in the reagent reservoirs were adjusted to 128, 64, 32, 16, 8, 4, 2, 1, 0.5, 0.25, 0.125 and 0.06 mg/L in sequence, and all solutions were prepared and used immediately. Several colonies were picked from agar plates cultured for 18-24 h and directly suspended in sterile normal saline, and the concentration of the bacterial suspension was adjusted to 0.5 McFarland units. The calibrated bacterial suspension was diluted with MH broth to a concentration of (4-8) × 10^5 colony-forming units per milliliter (CFU/mL) and prepared and used immediately. A volume of 100 µL of the aforementioned compounds of the present disclosure (e.g., the compounds prepared in the examples) and reference solutions at different concentrations was separately pipetted into wells 1 to 12 of sterile 96-well polystyrene plates, and an additional 100 µL of the aforementioned inoculum was added to each well. The final concentrations of the samples in the wells were adjusted to 64, 32, 16, 8, 4, 2, 1, 0.5, 0.25, 0.125, 0.06 and 0.03 mg/L, respectively, and the final concentration of the inoculum in each well was (2-4) × 10^5 CFU/mL. Additional growth control wells were set up, each containing 100 µL of the inoculum and 100 µL of sterile MH broth. The test substances and inocula in all wells were mixed thoroughly and then sealed. The inoculated 96-well plates were incubated in an incubator at 35-37°C for 16-20 h.
(§3) The strains used for the antibacterial activity assay were obtained from the American Type Culture Collection (ATCC) and clinical isolates.
(§4) The strains employed for the antibacterial activity assay included Escherichia coli ATCC BAA-2523, ATCC BAA-2340 (KPC), Klebsiella pneumoniae KPN+19-15, ATCC BAA-1705 (KPC), Pseudomonas aeruginosa PAE19-3, ATCC 27853, Acinetobacter baumannii ABA19-1, and NCTC 13304 (OXA-27).

[2] = system: Acinetobacter baumannii NCTC 13304 (OXA-27); details: NCTC 13304
Description: as §1, §2, §3, §4

[3] = system: Escherichia coli ATCC BAA-2523; details: ATCC BAA-2523
Description: as §1, §2, §3, §4

[4] = system: Escherichia coli ATCC BAA-2340 (KPC); details: ATCC BAA-2340
Description: as §1, §2, §3, §4

[5] = system: Klebsiella pneumoniae KPN+19-15; details: KPN+19-15
Description: as §1, §2, §3, §4

[6] = system: Klebsiella pneumoniae ATCC BAA-1705 (KPC); details: ATCC BAA-1705
Description: as §1, §2, §3, §4

[7] = system: Pseudomonas aeruginosa ATCC 27853; details: ATCC 27853
Description: as §1, §2, §3, §4

[8] = system: Pseudomonas aeruginosa PAE19-3; details: PAE19-3
Description: as §1, §2, §3, §4

[9] = Nephrotoxicity assay: in vitro cytotoxicity of HK-2 cells by CCK-8 assay; details: human, HK-2 cells (human renal), 72 h incubation with drug-containing medium
Description: In vitro cytotoxicity detection of HK-2 cells was performed by the CCK-8 assay.
The culture medium for human renal HK-2 cells was a complete RPMI-1640 medium (Invitrogen) supplemented with 10% fetal bovine serum (FBS, Gibco). The cryopreservation solution was composed of 90% FBS and 10% dimethyl sulfoxide (DMSO), and the cells were preserved long-term in liquid nitrogen. Cells were cultured in a sterile incubator with a humidified atmosphere containing 5% CO2 at 37°C. When the cell density reached 70%-80%, cell digestion and subculture were conducted. The cyclic lipopeptide compounds prepared in Examples 1-120 were weighed and dissolved in sterile water to prepare a mother solution with a concentration of 1 mg/mL. Drug-containing culture media were then formulated, with the final concentrations set as 500, 250, 200, 100, 50, 25, and 12.5 µg/mL, respectively. Cells were adjusted to a density of 5 × 10^4 cells/mL and seeded into 96-well plates, with 100 µL of cell suspension added to each well. After stable incubation for 24 h, the original medium was replaced with the prepared drug-containing medium, and the plates were incubated in the incubator for an additional 72 h. The medium was gently aspirated, and 100 µL of blank medium containing 10% CCK-8 was added to each well. After incubation in the incubator for 3 h, the optical density (OD) values at 450 nm were measured using a BIOTEK microplate reader. The experiment was repeated three times. For each replicate, polymyxin B was set as the positive drug, and a drug-free blank group was established as the control. The cell viability (%) was calculated by the formula: Cell viability (%) = [(OD of drug-treated group - OD of zero-setting) / (OD of drug-free group - OD of zero-setting)] × 100%. The half-maximal inhibitory concentration (IC50) values were calculated through logarithmic regression analysis.
The cells used for the nephrotoxicity assay were obtained from the ATCC ( American Type Culture Collection). The Cell Counting Kit-8 (CCK-8) used in the assay was supplied by Beyotime Biotechnology Co., Ltd.

Row | Compound | MIC [1] [µg/mL] | MIC [2] [µg/mL] | MIC [3] [µg/mL] | MIC [4] [µg/mL] | MIC [5] [µg/mL] | MIC [6] [µg/mL] | MIC [7] [µg/mL] | MIC [8] [µg/mL] | IC50 at 72 h [9] [µg/mL]
1 | CCCCCCCC(=O)N[C@@H](CCN)C(=O)N[C@H](C(=O)N[C@@H](CCN)C(=O)N[C@H]1CCNC(=O)[C@H]([C@@H](C)O)NC(=O)[C@H](CCN)NC(=O)[C@H](CCN)NC(=O)[C@H]([C@@H](C)O)NC(=O)[C@@H](Cc2ccccc2)NC(=O)[C@H](CCN)NC1=O)[C@@H](C)O [Compound 18, Octanoyl-Dab-Thr-Dab-ring(4-10)[Dab-Dab-D-Phe-Thr-Dab-Dab-Thr]] (Octanoyl-[Dab]T[Dab][Dab][Dab][dF]T[Dab][Dab]T; lactam 4-C) | 0.5 (≈ 0.425 µM) | 0.25 (≈ 0.212 µM) | ≤0.03 | 0.06 (≈ 0.051 µM) | ≤0.03 | 0.5 (≈ 0.425 µM) | 0.5 (≈ 0.425 µM) | 0.5 (≈ 0.425 µM) | > 500
2 | CCCCCCC(=O)N[C@@H](CCN)C(=O)N[C@H](C(=O)N[C@@H](CN)C(=O)N[C@H]1CCNC(=O)[C@H]([C@@H](C)O)NC(=O)[C@H](CCN)NC(=O)[C@H](CCN)NC(=O)[C@H]([C@@H](C)O)NC(=O)[C@@H](Cc2ccccc2)NC(=O)[C@H](CCN)NC1=O)[C@@H](C)O [Compound 9, Heptanoyl-Dab-Thr-Dap-ring(4-10)[Dab-Dab-D-Phe-Thr-Dab-Dab-Thr]] (Heptanoyl-[Dab]T[Dap][Dab][Dab][dF]T[Dab][Dab]T; lactam 4-C) | 0.03 (≈ 0.0261 µM) | 0.03 (≈ 0.0261 µM) | 0.03 (≈ 0.0261 µM) | 0.03 (≈ 0.0261 µM) | 0.03 (≈ 0.0261 µM) | 0.03 (≈ 0.0261 µM) | 0.125 (≈ 0.109 µM) | 0.25 (≈ 0.218 µM) | > 500
3 | CC(C)CCCCC(=O)N[C@@H](CCN)C(=O)N[C@H](C(=O)N[C@H](CO)C(=O)N[C@H]1CCNC(=O)[C@H]([C@@H](C)O)NC(=O)[C@H](CCNCS(=O)(=O)O)NC(=O)[C@H](CCN)NC(=O)[C@H]([C@@H](C)O)NC(=O)[C@@H](Cc2ccccc2)NC(=O)[C@H](CCN)NC1=O)[C@@H](C)O [Compound 111, 6-methylheptanoyl-Dab-Thr-D-Ser-ring(4-10)[Dab-Dab-D-Phe-Thr-Dab-Dab(CH2SO3H)-Thr]] ({Heptanoyl(6-Me)}-[Dab]T[dS][Dab][Dab][dF]T[Dab][Dab(CH2SO3H)]T; lactam 4-C) | 0.25 (≈ 0.199 µM) | 0.06 (≈ 0.0477 µM) | 0.06 (≈ 0.0477 µM) | 0.06 (≈ 0.0477 µM) | 0.125 (≈ 0.0993 µM) | 0.125 (≈ 0.0993 µM) | 0.25 (≈ 0.199 µM) | 0.5 (≈ 0.397 µM) | > 500
4 | CC[C@H](C)CCCCC(=O)N[C@@H](CCN)C(=O)N[C@H](C(=O)N[C@H](CCCN)C(=O)N[C@H]1CCNC(=O)[C@H]([C@@H](C)O)NC(=O)[C@H](CCN)NC(=O)[C@H](CCN)NC(=O)[C@H]([C@@H](C)O)NC(=O)[C@@H](Cc2ccccc2)NC(=O)[C@H](CCN)NC1=O)[C@@H](C)O [Compound 21, (S)-6-methyloctanoyl-Dab-Thr-D-Orn-ring(4-10)[Dab-Dab-D-Phe-Thr-Dab-Dab-Thr]] (X1-[Dab]T[dOrn][Dab][Dab][dF]T[Dab][Dab]T; lactam 4-C) | 0.125 (≈ 0.104 µM) | 0.06 (≈ 0.0498 µM) | ≤0.03 | ≤0.03 | 0.125 (≈ 0.104 µM) | 0.06 (≈ 0.0498 µM) | 0.25 (≈ 0.207 µM) | 1 (≈ 0.83 µM) | > 500
5 | CC(C)CCCCC(=O)N[C@@H](CN)C(=O)N[C@H](C(=O)N[C@H](CO)C(=O)N[C@H]1CCNC(=O)[C@H]([C@@H](C)O)NC(=O)[C@H](CCN)NC(=O)[C@H](CCN)NC(=O)[C@H]([C@@H](C)O)NC(=O)[C@@H](Cc2ccccc2)NC(=O)[C@H](CCN)NC1=O)[C@@H](C)O [Compound 52, 6-methylheptanoyl-Dap-Thr-D-Ser-ring(4-10)[Dab-Dab-D-Phe-Thr-Dab-Dab-Thr]] ({Heptanoyl(6-Me)}-[Dap]T[dS][Dab][Dab][dF]T[Dab][Dab]T; lactam 4-C) | 0.25 (≈ 0.217 µM) | 0.25 (≈ 0.217 µM) | ≤0.03 | ≤0.03 | 0.5 (≈ 0.435 µM) | 0.25 (≈ 0.217 µM) | 64 (≈ 55.6 µM) | 4 (≈ 3.48 µM) | > 500
6 | CC(C)CCCCC(=O)N[C@@H](CCCN)C(=O)N[C@H](C(=O)N[C@H](CO)C(=O)N[C@H]1CCNC(=O)[C@H]([C@@H](C)O)NC(=O)[C@H](CCN)NC(=O)[C@H](CCN)NC(=O)[C@H]([C@@H](C)O)NC(=O)[C@@H](Cc2ccccc2)NC(=O)[C@H](CCN)NC1=O)[C@@H](C)O [Compound 57, 6-methylheptanoyl-Orn-Thr-D-Ser-ring(4-10)[Dab-Dab-D-Phe-Thr-Dab-Dab-Thr]] ({Heptanoyl(6-Me)}-[Orn]T[dS][Dab][Dab][dF]T[Dab][Dab]T; lactam 4-C) | 0.25 (≈ 0.212 µM) | 0.25 (≈ 0.212 µM) | 0.125 (≈ 0.106 µM) | 0.125 (≈ 0.106 µM) | 0.5 (≈ 0.424 µM) | 0.25 (≈ 0.212 µM) | 64 (≈ 54.3 µM) | 4 (≈ 3.39 µM) | > 500
7 | CCCCCCCCC(=O)N[C@@H](CN)C(=O)N[C@H](C(=O)N[C@H](CCN)C(=O)N[C@H]1CCNC(=O)[C@H]([C@@H](C)O)NC(=O)[C@H](CCN)NC(=O)[C@H](CCN)NC(=O)[C@H](CC(C)C)NC(=O)[C@@H](CC(C)C)NC(=O)[C@H](CCN)NC1=O)[C@@H](C)O [Compound 100, Nonanoyl-Dap-Thr-D-Dab-ring(4-10)[Dab-Dab-D-Leu-Leu-Dab-Dab-Thr]] (Nonanoyl-[Dap]T[dDab][Dab][Dab][dL]L[Dab][Dab]T; lactam 4-C) | 0.06 (≈ 0.0519 µM) | 0.06 (≈ 0.0519 µM) | 0.125 (≈ 0.108 µM) | 0.125 (≈ 0.108 µM) | 0.06 (≈ 0.0519 µM) | 0.06 (≈ 0.0519 µM) | 1 (≈ 0.865 µM) | 1 (≈ 0.865 µM) | 117 ± 15.6 (≈ 101 µM)
